Data reported in ChEMBL document CHEMBL1156232, “Non-classical antifolates. Part 2: synthesis, biological evaluation, and molecular modeling study of some new 2,6-substituted-quinazolin-4-ones” (Bioorg Med Chem, 2010).
Values after ≈ are worked out from the molar mass of the structure shown. Active and inactive are the calls of the source. No cut-off for these calls is given here.

Key:
Micrococcus luteus = experiment: Antibacterial activity against Micrococcus luteus at 200 ug/disk after 24 hrs by disk diffusion method; format: functional
Dihydrofolate reductase [1] = biological target: T1, Dihydrofolate reductase (Homo sapiens, UniProt P00374)
T1 sequence (P00374 whole entry): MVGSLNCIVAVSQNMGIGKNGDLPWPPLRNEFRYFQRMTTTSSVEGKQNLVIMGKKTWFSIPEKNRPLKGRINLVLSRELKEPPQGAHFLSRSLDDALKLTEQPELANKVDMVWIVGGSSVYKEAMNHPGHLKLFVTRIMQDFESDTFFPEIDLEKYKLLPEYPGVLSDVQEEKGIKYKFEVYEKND
Description: Inhibition of human DHFR after 2 mins

Escherichia coli [2] = experiment: Antibacterial activity against Escherichia coli at 200 ug/disk after 24 hrs by disk diffusion method; format: functional; conditions: for zone of inhibition at 200 µg/disc: read-out: DIZ
Bacillus subtilis [3] = experiment: Antibacterial activity against Bacillus subtilis at 200 ug/disk after 24 hrs by disk diffusion method; format: functional; conditions: for zone of inhibition at 200 µg/disc: read-out: DIZ
Candida albicans [4] = experiment: Antifungal activity against Candida albicans after 48 hrs by microdilution susceptibility method; format: functional, organism-based
Staphylococcus aureus [5] = experiment: Antibacterial activity against Staphylococcus aureus at 200 ug/disk after 24 hrs by disk diffusion method; format: functional; conditions: for zone of inhibition at 200 µg/disc: read-out: DIZ
Candida albicans [6] = experiment: Antifungal activity against Candida albicans at 200 ug/disk after 48 hrs by disk diffusion method; format: functional, organism-based
Dihydrofolate reductase [7] = biological target: T2, Dihydrofolate reductase (Bos taurus, UniProt P00376)
T2 sequence (P00376 whole entry): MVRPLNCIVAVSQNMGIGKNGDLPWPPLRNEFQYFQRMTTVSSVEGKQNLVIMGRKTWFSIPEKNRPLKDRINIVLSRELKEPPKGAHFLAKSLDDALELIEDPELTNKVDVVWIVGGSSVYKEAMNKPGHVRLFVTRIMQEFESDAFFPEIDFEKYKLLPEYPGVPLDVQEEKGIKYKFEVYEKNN
Description: Inhibition of bovine DHFR after 2 mins

Pseudomonas aeruginosa = experiment: Antibacterial activity against Pseudomonas aeruginosa at 200 ug/disk after 24 hrs by disk diffusion method; format: functional; conditions: for zone of inhibition at 200 µg/disc: read-out: DIZ
Bacillus subtilis [8] = experiment: Antibacterial activity against Bacillus subtilis after 24 hrs by microdilution susceptibility method; format: functional
Escherichia coli [9] = experiment: Antibacterial activity against Escherichia coli after 24 hrs by microdilution susceptibility method; format: functional
Staphylococcus aureus [10] = experiment: Antibacterial activity against Staphylococcus aureus after 24 hrs by microdilution susceptibility method; format: functional

SMILES	diameter of the inhibition zone (DIZ) (Micrococcus luteus)	IC50 (Dihydrofolate reductase [1]) [nM]	diameter of the inhibition zone (DIZ) (Escherichia coli [2])	diameter of the inhibition zone (DIZ) (Bacillus subtilis [3])	Activity (Candida albicans [4])	diameter of the inhibition zone (DIZ) (Staphylococcus aureus [5])	Activity (Candida albicans [6])	IC50 (Dihydrofolate reductase [7]) [nM]	diameter of the inhibition zone (DIZ) (Pseudomonas aeruginosa)	zone of inhibition at 200 µg/disc (Micrococcus luteus; Micrococcus luteus, 24 h, read-out: DIZ) [mm]	MIC (Bacillus subtilis [8]) [µg/mL]	zone of inhibition at 200 µg/disc (Escherichia coli [2]) [mm]	zone of inhibition at 200 µg/disc (Bacillus subtilis [3]) [mm]	zone of inhibition at 200 µg/disc (Pseudomonas aeruginosa) [mm]	MIC (Escherichia coli [9]) [µg/mL]	MIC (Staphylococcus aureus [10]) [µg/mL]	zone of inhibition at 200 µg/disc (Staphylococcus aureus [5]) [mm]
C=CCN(CC=C)c1ccc2nc(SC)n(Cc3ccccc3)c(=O)c2c1	inactive	1000	inactive	inactive	inactive	inactive	inactive	3000	inactive	–	–	–	–	–	–	–	–
Cc1ccc2nc(S)n(Cc3ccccc3)c(=O)c2c1	–	–	–	–	inactive	inactive	inactive	30000	–	14	4 (≈ 14.2 µM)	17	18	15	4 (≈ 14.2 µM)	–	–
C=CCSc1nc2ccc(N(C/C=C/c3ccccc3)C/C=C/c3ccccc3)cc2c(=O)n1Cc1ccccc1	inactive	700	–	–	inactive	–	inactive	500	inactive	–	4 (≈ 7.2 µM)	16	20	–	16 (≈ 28.8 µM)	4 (≈ 7.2 µM)	22
CCSc1nc2ccc([N+](=O)[O-])cc2c(=O)n1Cc1ccccc1	inactive	–	–	inactive	inactive	inactive	inactive	10000	–	–	–	20	–	15	8 (≈ 23.4 µM)	–	–
C=CC(=O)Nc1ccc2nc(SC/C=C/c3ccccc3)n(Cc3ccccc3)c(=O)c2c1	inactive	2000	inactive	inactive	inactive	–	inactive	1000	inactive	–	–	–	–	–	–	–	15
CSc1nc2ccc(NC/C=C/c3ccccc3)cc2c(=O)n1Cc1ccccc1	inactive	2000	–	inactive	inactive	inactive	inactive	500	inactive	–	–	15	–	–	–	–	–
C=CCSc1nc2ccc(C)cc2c(=O)n1Cc1ccccc1	inactive	4000	inactive	inactive	inactive	inactive	inactive	2000	inactive	–	–	–	–	–	–	–	–
C=CCNc1ccc2nc(SCC=C)n(Cc3ccccc3)c(=O)c2c1	inactive	1000	inactive	inactive	inactive	inactive	inactive	800	inactive	–	–	–	–	–	–	–	–
C=CCNc1ccc2nc(SC)n(Cc3ccccc3)c(=O)c2c1	inactive	800	–	inactive	inactive	inactive	inactive	600	inactive	–	–	17	–	–	–	–	–
C=CCSc1nc2ccc(N)cc2c(=O)n1Cc1ccccc1	inactive	5000	inactive	inactive	inactive	inactive	inactive	8000	inactive	–	–	–	–	–	–	–	–
C=CCSc1nc2ccc([N+](=O)[O-])cc2c(=O)n1Cc1ccccc1	inactive	2000	inactive	inactive	inactive	inactive	inactive	3000	inactive	–	–	–	–	–	–	–	–
Cc1ccc2nc(SC/C=C/c3ccccc3)n(Cc3ccccc3)c(=O)c2c1	inactive	1000	inactive	inactive	inactive	inactive	inactive	500	inactive	–	–	–	–	–	–	–	–
C=CCSc1nc2ccc(N(CC=C)CC=C)cc2c(=O)n1Cc1ccccc1	inactive	900	inactive	inactive	inactive	inactive	inactive	400	inactive	–	–	–	–	–	–	–	–
Nc1ccc2nc(SC/C=C/c3ccccc3)n(Cc3ccccc3)c(=O)c2c1	inactive	6000	inactive	inactive	inactive	inactive	inactive	8000	inactive	–	–	–	–	–	–	–	–
CSc1nc2ccc(N(C/C=C/c3ccccc3)C/C=C/c3ccccc3)cc2c(=O)n1Cc1ccccc1	inactive	800	–	–	inactive	inactive	inactive	600	inactive	–	8 (≈ 15.1 µM)	16	18	–	16 (≈ 30.2 µM)	–	–
C=CCN(C)c1ccc2nc(SC)n(Cc3ccccc3)c(=O)c2c1	inactive	2000	inactive	inactive	inactive	inactive	inactive	1000	inactive	–	–	–	–	–	–	–	–
